Test results: paper PMC10176470, “Engaging a Non-catalytic Cysteine Residue Drives Potent and Selective Inhibition of Caspase-6” (Journal of the American Chemical Society, 2023)

Legend:
Format in all cases: cell-based
[1] = target: proteins of HEK293T cells transiently overexpressing caspase-6 (Homo sapiens, UniProt O00541); conditions: protein PES1 (O00541); exp_ref Probe; analysis C6
[2] = target: proteins of HEK293T cells transiently overexpressing caspase-6 (Homo sapiens, UniProt P08865); conditions: exp_ref Probe; protein RPSA (P08865); analysis C6
[3] = target: T1, proteins of HEK293T cells transiently overexpressing caspase-6 (Homo sapiens, UniProt P27824); conditions: protein CANX (P27824)
T1 sequence (P27824 21-592): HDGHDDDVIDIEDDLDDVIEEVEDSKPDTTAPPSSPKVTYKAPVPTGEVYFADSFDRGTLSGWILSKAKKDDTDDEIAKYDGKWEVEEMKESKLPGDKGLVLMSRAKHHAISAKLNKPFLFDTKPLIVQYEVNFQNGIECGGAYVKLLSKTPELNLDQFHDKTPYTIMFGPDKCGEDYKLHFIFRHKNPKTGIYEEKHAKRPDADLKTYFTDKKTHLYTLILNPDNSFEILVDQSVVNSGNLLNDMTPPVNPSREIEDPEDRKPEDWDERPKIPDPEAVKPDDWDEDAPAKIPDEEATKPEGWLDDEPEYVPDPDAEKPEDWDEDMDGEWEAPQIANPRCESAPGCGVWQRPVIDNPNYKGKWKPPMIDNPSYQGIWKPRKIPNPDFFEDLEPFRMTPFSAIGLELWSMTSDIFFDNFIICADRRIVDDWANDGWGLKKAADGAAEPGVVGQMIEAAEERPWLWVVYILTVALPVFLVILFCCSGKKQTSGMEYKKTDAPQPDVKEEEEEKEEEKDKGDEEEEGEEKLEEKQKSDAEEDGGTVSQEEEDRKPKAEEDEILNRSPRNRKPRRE

[4] = target: T2, proteins of HEK293T cells transiently overexpressing caspase-6 (Homo sapiens, UniProt P29401)
T2 sequence (P29401 1-623): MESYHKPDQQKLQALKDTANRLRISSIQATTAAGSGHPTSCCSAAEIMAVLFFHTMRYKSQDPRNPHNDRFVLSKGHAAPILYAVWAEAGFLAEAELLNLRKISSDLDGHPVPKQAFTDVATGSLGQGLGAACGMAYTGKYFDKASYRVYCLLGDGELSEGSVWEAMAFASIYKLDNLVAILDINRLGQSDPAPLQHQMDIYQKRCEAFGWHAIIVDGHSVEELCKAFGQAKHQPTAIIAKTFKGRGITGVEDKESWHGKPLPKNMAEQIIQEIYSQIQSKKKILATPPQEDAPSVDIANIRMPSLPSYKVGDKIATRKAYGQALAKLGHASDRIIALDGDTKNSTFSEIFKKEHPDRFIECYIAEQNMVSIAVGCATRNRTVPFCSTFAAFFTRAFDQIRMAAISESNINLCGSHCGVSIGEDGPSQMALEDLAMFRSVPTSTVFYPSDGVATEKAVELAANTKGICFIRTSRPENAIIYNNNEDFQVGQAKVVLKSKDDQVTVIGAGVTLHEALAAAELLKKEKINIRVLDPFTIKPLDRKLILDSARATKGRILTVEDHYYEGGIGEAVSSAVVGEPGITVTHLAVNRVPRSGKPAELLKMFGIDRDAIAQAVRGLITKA

[5] = target: proteins of HEK293T cells transiently overexpressing caspase-6 (Homo sapiens, UniProt P47756); conditions: Probe; protein CAPZB P47756
Sequence of proteins of HEK293T cells transiently overexpressing caspase-6 (Homo sapiens, UniProt P47756) (P47756 whole entry): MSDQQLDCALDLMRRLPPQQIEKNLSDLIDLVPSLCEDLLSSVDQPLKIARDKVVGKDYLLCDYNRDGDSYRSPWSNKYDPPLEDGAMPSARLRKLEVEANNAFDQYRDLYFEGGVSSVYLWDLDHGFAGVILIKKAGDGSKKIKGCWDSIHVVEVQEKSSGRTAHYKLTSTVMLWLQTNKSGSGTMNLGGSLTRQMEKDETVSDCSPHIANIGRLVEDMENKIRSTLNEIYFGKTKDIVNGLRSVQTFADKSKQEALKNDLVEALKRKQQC

[6] = target: proteins of HEK293T cells transiently overexpressing caspase-6 (Homo sapiens, UniProt P52292); conditions: exp_ref Probe; protein KPNA2 (P52292); analysis C6
[7] = target: proteins of HEK293T cells transiently overexpressing caspase-6 (Homo sapiens, UniProt P62826); conditions: exp_ref Probe; protein RAN (P62826); analysis C6
[8] = target: T3, proteins of HEK293T cells transiently overexpressing caspase-6 (Homo sapiens, UniProt Q8NC51)
T3 sequence (Q8NC51 1-408): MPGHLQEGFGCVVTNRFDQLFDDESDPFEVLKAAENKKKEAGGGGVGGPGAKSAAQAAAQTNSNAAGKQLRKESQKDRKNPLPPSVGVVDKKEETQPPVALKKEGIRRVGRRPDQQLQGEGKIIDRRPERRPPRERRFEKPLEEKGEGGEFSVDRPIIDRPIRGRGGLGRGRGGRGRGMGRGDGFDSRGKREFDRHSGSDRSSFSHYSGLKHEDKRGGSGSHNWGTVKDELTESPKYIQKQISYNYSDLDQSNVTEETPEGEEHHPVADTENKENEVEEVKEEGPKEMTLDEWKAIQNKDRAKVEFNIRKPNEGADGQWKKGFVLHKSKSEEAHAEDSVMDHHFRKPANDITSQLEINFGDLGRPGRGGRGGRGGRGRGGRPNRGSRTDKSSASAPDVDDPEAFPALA

[9] = target: proteins of HEK293T cells transiently overexpressing caspase-6 (Homo sapiens, UniProt Q9NUU7); conditions: protein DDX19A (Q9NUU7); exp_ref Probe; analysis C6
Sequence of proteins of HEK293T cells transiently overexpressing caspase-6 (Homo sapiens, UniProt Q9NUU7) (Q9NUU7 whole entry): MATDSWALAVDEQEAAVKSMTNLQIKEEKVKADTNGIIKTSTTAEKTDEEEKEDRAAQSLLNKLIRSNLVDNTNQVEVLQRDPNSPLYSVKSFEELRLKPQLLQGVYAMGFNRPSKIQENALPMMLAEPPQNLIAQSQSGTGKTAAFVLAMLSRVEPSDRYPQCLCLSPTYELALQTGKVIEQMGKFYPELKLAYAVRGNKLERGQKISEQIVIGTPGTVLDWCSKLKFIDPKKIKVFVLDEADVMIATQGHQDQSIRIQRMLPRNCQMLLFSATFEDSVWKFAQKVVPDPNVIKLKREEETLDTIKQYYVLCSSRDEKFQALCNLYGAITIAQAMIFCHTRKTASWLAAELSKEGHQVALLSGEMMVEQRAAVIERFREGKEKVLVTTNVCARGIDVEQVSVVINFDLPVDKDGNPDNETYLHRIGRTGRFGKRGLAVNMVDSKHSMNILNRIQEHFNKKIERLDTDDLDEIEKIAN

[10] = target: proteins of HEK293T cells transiently overexpressing caspase-6 (Homo sapiens, UniProt Q9Y5M8); conditions: exp_ref Probe; protein SRPRB (Q9Y5M8); analysis C6
Sequence of proteins of HEK293T cells transiently overexpressing caspase-6 (Homo sapiens, UniProt Q9Y5M8) (Q9Y5M8 whole entry): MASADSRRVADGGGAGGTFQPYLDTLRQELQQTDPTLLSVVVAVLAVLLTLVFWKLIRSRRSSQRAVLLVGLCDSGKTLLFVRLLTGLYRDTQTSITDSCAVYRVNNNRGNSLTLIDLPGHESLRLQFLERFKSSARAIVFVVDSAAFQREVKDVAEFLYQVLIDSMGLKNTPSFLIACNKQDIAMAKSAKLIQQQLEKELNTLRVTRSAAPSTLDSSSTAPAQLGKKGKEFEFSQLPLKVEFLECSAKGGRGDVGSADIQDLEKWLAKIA

Sequence of proteins of HEK293T cells transiently overexpressing caspase-6 (Homo sapiens, UniProt O00541) (O00541 whole entry, looked up): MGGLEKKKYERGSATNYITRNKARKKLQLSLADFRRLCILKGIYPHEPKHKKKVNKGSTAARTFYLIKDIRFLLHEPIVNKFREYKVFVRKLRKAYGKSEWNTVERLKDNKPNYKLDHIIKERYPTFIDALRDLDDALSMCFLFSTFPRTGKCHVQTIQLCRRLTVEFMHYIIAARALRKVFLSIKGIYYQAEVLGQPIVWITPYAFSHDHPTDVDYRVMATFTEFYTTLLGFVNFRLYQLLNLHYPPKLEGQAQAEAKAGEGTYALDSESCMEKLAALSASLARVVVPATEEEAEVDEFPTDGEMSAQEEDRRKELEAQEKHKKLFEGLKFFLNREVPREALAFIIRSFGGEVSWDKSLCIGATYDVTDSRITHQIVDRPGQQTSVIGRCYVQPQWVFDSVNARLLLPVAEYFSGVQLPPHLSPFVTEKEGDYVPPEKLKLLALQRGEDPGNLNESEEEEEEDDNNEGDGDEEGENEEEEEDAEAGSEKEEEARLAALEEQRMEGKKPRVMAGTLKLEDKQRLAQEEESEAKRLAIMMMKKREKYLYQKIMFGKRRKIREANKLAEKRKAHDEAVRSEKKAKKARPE

C#CCOc1ccc([C@@H]2C[C@@H](C(=O)Nc3ccc(OC(F)(F)F)cc3)CN(S(=O)(=O)C=C)C2)cc1 (relative stereo) [13-t]
enrich.exp.med [1]: 1.47 | enrich.exp.med [2]: -0.2936 | enrich.exp.med ([3]; exp_ref Probe, analysis C6): 0.4691 | enrich.exp.med.lin [3]: 1.384 | enrich.exp.med.log2 [3]: 0.4691 | enrich.exp.med ([4]; Probe, protein TKT P29401): -0.5472 | enrich.exp.med.lin ([4]; protein TKT (P29401)): 0.6843 | enrich.exp.med.log2 ([4]; protein TKT (P29401)): -0.5472 | enrich.exp.med [5]: -0.5086 | enrich.exp.med [6]: 0.5159 | enrich.exp.med [7]: 0.5777 | enrich.exp.med ([8]; Probe, protein SERBP1 Q8NC51): -1.6881 | enrich.exp.med.lin ([8]; protein SERBP1 (Q8NC51)): 0.3103 | enrich.exp.med.log2 ([8]; protein SERBP1 (Q8NC51)): -1.6881 | enrich.exp.med [9]: 1.908 | enrich.exp.med [10]: 0.6428
